In US20060069132A1, “Azolecarboxamide herbicides” (priority 2004, published 2006):

Key:
[1] = test system: barnyardgrass; test: Test B pre-/postemergence herbicide test; format: in vivo, Echinochloa crus-galli; conditions: for Barnyardgrass plant response rating: postemergence
Outline: (§1)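 Plants compared with untreated controls 13–15 days post-treatment and given a visual 0–100 injury score. Applications: preemergence to seeds; postemergence at 1- to 4-leaf (2–18 cm); paddy species flooded, 2-leaf stage. Vehicle non-phytotoxic, surfactant included.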

[2] = test system: Surinam grass; test: Test B pre-/postemergence herbicide test; format: in vivo, Urochloa decumbens; conditions: for Surinam Grass plant response rating: postemergence
Outline: (§2)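 Seeds were planted and treated preemergence with compounds formulated in a non-phytotoxic solvent mixture containing surfactant, while plants at the 1- to 4-leaf stage (2 to 18 cm) received postemergence sprays. Flooded paddy plants were grown to the 2-leaf stage. After 13 to 15 days in a greenhouse, injury was visually rated 0–100 against untreated controls.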

[3] = test system: cocklebur; test: Test B pre-/postemergence herbicide test; format: in vivo, Xanthium strumarium; conditions: for Cocklebur plant response rating: postemergence
Outline: as §1

[4] = test system: corn; test: Test B pre-/postemergence herbicide test; format: in vivo, Zea mays; conditions: for Corn plant response rating: postemergence
Outline: as §2

[5] = test system: large crabgrass; test: Test B pre-/postemergence herbicide test; format: in vivo, Digitaria sanguinalis; conditions: for Crabgrass, Large plant response rating: postemergence
Outline: as §2

[6] = test system: giant foxtail; test: Test B pre-/postemergence herbicide test; format: in vivo, Setaria faberi; conditions: for Foxtail, Giant plant response rating: postemergence
Outline: as §2

[7] = test system: lambsquarters; test: Test B pre-/postemergence herbicide test; format: in vivo, Chenopodium album; conditions: for Lambsquarters plant response rating: postemergence
Outline: as §2

[8] = test system: morningglory; test: Test B pre-/postemergence herbicide test; format: in vivo, Ipomoea coccinea; conditions: for Morningglory plant response rating: postemergence
Outline: as §1

[9] = test system: pigweed; test: Test B pre-/postemergence herbicide test; format: in vivo, Amaranthus retroflexus; conditions: for Pigweed plant response rating: postemergence
Outline: as §2

[10] = test system: rice; test: Test B pre-/postemergence herbicide test; format: in vivo, Oryza sativa; conditions: 0 = no effect, 100 = complete control, preemergence
Outline: as §2

[11] = test system: velvetleaf; test: Test B pre-/postemergence herbicide test; format: in vivo, Abutilon theophrasti; conditions: for Velvetleaf plant response rating: postemergence
Outline: as §2

[12] = test system: blackgrass; test: Test B postemergence herbicide test; format: in vivo, Alopecurus myosuroides; conditions: postemergence
Outline: (§3)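 Formulated test chemicals went onto postemergence plants measuring 2 to 18 cm, at one to four leaves. For the paddy assay, species had reached two leaves. Scoring took place 13–15 days later by eye, relative to untreated plants, using 0 for no effect up to 100 for full control.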

[13] = test system: wheat; test: Test B postemergence herbicide test; format: in vivo, Triticum aestivum; set-up: key to Wheat plant response rating: 0 = no effect, 100 = complete control; conditions: postemergence
Outline: (§4)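 Plants grow to 1- to 4-leaf stage (2–18 cm) for postemergence spraying, or to 2-leaf stage for the paddy test. Formulated compound is applied. Greenhouse holding lasts 13–15 days. Response is scored visually relative to controls, 0 no effect to 100 complete control; a dash means no result.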

[14] = test system: wild oat; test: Test B postemergence herbicide test; format: in vivo, Avena fatua; conditions: postemergence
Outline: as §4

[15] = test system: rice; test: Test B flooded paddy test; format: in vivo, Oryza sativa; conditions: 1000 g ai/ha, scale 0 to 100 (0 no effect, 100 complete control)
Outline: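 Visual ratings, 0 (no effect) to 100 (complete control), made versus controls after 13–15 d greenhouse. Paddy plants treated at 2-leaf stage; postemergence plants at 1- to 4-leaf stage, 2–18 cm tall.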

[16] = test system: small flower umbrella sedge; test: Test B flooded paddy test; format: in vivo, Cyperus difformis; conditions: 1000 g ai/ha, scale 0 to 100 (0 no effect, 100 complete control)
Outline: as §3

[17] = test system: ducksalad; test: Test B flooded paddy test; format: in vivo, Heteranthera limosa; conditions: 1000 g ai/ha, scale 0 to 100 (0 no effect, 100 complete control)
Outline: as §3

[18] = test system: barnyardgrass; test: Test B flooded paddy test; format: in vivo, Echinochloa crus-galli; conditions: 1000 g ai/ha, scale 0 to 100 (0 no effect, 100 complete control)
Outline: as §3

[19] = test system: rice; test: Test C flooded paddy test; format: in vivo, Oryza sativa
Outline: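 Injury scored visually against controls on a 0 (no effect) to 100 (complete control) scale, 12 to 14 days after treatment in greenhouse. Flooded paddy plants treated at 2-leaf stage; postemergence plants at 1- to 4-leaf stage, 2 to 18 cm tall.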

[20] = test system: smallflower umbrella sedge; test: Test C flooded paddy test; format: in vivo, Cyperus difformis
[21] = test system: ducksalad; test: Test C flooded paddy test; format: in vivo, Heteranthera limosa
[22] = test system: barnyardgrass; test: Test C flooded paddy test; format: in vivo, Echinochloa crus-galli
Outline: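 Visual rating, 0 (no effect) to 100 (complete control), vs. controls at 12–14 d in greenhouse. Postemergence: 1–4-leaf plants, 2–18 cm. Paddy: flooded, barnyardgrass at 2-leaf stage.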

[23] = 125 g ai/ha, 0 = no effect, 100 = complete control, preemergence
[24] = 125 g ai/ha, visual rating, scale 0 (no effect) to 100 (complete control)
[25] = 500 g ai/ha, visual rating, 0 = no effect, 100 = complete control, preemergence
[26] = 500 g ai/ha, scale 0 to 100, 0 is no effect, 100 is complete control
[27] = 125 g ai/ha, scale 0 to 100 (0 no effect, 100 complete control)
[28] = 250 g ai/ha, scale of 0 to 100, 0 is no effect, 100 is complete control
[29] = 500 g ai/ha, visual rating after 12 to 14 days, scale 0 to 100 (0 no effect, 100 complete control)

CCN(CC)C(=O)c1ccc(F)c(NC(=O)C2CC(C(C)(C)C)=NN2CC)c1 (racemic) [Compound 308]
Barnyardgrass plant response rating (0 to 100 scale) [1, 23]: 20 | Barnyardgrass plant response rating [1, 24]: 0 | Plant response rating, Barnyardgrass [1, 25]: 80 | Barnyardgrass plant response rating [1, 26]: 10 | Surinam Grass plant response rating (0 to 100 scale) [2, 23]: 20 | Surinam Grass plant response rating [2, 24]: 10 | Plant response rating, Surinam Grass [2, 25]: 60 | Surinam Grass plant response rating [2, 26]: 20 | Cocklebur plant response rating (0 to 100 scale) [3, 23]: 0 | Cocklebur plant response rating [3, 24]: 0 | Plant response rating, Cocklebur [3, 25]: 0 | Cocklebur plant response rating [3, 26]: 40 | Corn plant response rating (0 to 100 scale) [4, 23]: 20 | Corn plant response rating [4, 24]: 0 | Plant response rating, Corn [4, 25]: 70 | Corn plant response rating [4, 26]: 10 | Crabgrass, Large plant response rating (0 to 100 scale) [5, 23]: 40 | Crabgrass, Large plant response rating [5, 24]: 0 | Plant response rating, Crabgrass, Large [5, 25]: 70 | Crabgrass, Large plant response rating [5, 26]: 10 | Foxtail, Giant plant response rating (0 to 100 scale) [6, 23]: 10 | Foxtail, Giant plant response rating [6, 24]: 10 | Plant response rating, Foxtail, Giant [6, 25]: 90 | Foxtail, Giant plant response rating [6, 26]: 20 | Lambsquarters plant response rating (0 to 100 scale) [7, 23]: 100 | Lambsquarters plant response rating [7, 24]: 50 | Plant response rating, Lambsquarters [7, 25]: 100 | Lambsquarters plant response rating [7, 26]: 60 | Morningglory plant response rating (0 to 100 scale) [8, 23]: 0 | Morningglory plant response rating [8, 24]: 0 | Plant response rating, Morningglory [8, 25]: 10 | Morningglory plant response rating [8, 26]: 20 | Pigweed plant response rating (0 to 100 scale) [9, 23]: 80 | Pigweed plant response rating [9, 24]: 60 | Plant response rating, Pigweed [9, 25]: 100 | Pigweed plant response rating [9, 26]: 70 | Rice plant response rating (0 to 100 scale) ([10]; 125 g ai/ha): 20 | Plant response rating, Rice ([10]; 500 g ai/ha, visual rating): 50 | Velvetleaf plant response rating [11, 24]: 10 | Plant response rating, Velvetleaf [11, 25]: 100 | Velvetleaf plant response rating [11, 26]: 20 | Blackgrass plant response rating [12, 24]: 10 | Blackgrass plant response rating [12, 26]: 30 | Wheat plant response rating [13, 24]: 10 | Wheat plant response rating [13, 26]: 20 | Oat, Wild plant response rating [14, 24]: 10 | Oat, Wild plant response rating [14, 26]: 20 | Rice plant response rating [15]: 70 | Sedge, Umbrella plant response rating [16]: 90 | Ducksalad plant response rating [17]: 90 | Barnyardgrass plant response rating [18]: 90 | Rice plant response rating ([19]; 62 g ai/ha, scale 0 to 100): 15 | Rice plant response rating [19, 27]: 25 | Rice plant response rating [19, 28]: 65 | Plant response rating, Rice [19, 29]: 70 | Sedge, Umbrella plant response rating ([20]; 62 g ai/ha, scale 0 to 100): 0 | Sedge, Umbrella plant response rating [20, 27]: 25 | Sedge, Umbrella plant response rating [20, 28]: 70 | Plant response rating, Sedge, Umbrella [20, 29]: 80 | Ducksalad plant response rating ([21]; 62 g ai/ha, scale 0 to 100): 0 | Ducksalad plant response rating [21, 27]: 0 | Ducksalad plant response rating [21, 28]: 15 | Plant response rating, Ducksalad [21, 29]: 75 | Barnyardgrass plant response rating ([22]; 62 g ai/ha, scale 0 to 100 (0 no effect, 100 complete control)): 0 | Barnyardgrass plant response rating [22, 27]: 0 | Barnyardgrass plant response rating [22, 28]: 25 | Plant response rating, Barnyardgrass [22, 29]: 65
